Tests used:
hormone sensitive lipase = molecular target: T1, hormone sensitive lipase (Homo sapiens, UniProt Q05469); assay: TEST 3190.1 HSL-FL: percent inhibition of hormone sensitive lipase at 10 μM, fluorochrome-labeled triacylglyceride emulsion; format: biochemical; settings: 10 μM sample concentration; percent activity relative to a non-inhibited sample; 30 min preincubation 25° C., 120 min at 37° C.
T1 sequence (Q05469 1-1076): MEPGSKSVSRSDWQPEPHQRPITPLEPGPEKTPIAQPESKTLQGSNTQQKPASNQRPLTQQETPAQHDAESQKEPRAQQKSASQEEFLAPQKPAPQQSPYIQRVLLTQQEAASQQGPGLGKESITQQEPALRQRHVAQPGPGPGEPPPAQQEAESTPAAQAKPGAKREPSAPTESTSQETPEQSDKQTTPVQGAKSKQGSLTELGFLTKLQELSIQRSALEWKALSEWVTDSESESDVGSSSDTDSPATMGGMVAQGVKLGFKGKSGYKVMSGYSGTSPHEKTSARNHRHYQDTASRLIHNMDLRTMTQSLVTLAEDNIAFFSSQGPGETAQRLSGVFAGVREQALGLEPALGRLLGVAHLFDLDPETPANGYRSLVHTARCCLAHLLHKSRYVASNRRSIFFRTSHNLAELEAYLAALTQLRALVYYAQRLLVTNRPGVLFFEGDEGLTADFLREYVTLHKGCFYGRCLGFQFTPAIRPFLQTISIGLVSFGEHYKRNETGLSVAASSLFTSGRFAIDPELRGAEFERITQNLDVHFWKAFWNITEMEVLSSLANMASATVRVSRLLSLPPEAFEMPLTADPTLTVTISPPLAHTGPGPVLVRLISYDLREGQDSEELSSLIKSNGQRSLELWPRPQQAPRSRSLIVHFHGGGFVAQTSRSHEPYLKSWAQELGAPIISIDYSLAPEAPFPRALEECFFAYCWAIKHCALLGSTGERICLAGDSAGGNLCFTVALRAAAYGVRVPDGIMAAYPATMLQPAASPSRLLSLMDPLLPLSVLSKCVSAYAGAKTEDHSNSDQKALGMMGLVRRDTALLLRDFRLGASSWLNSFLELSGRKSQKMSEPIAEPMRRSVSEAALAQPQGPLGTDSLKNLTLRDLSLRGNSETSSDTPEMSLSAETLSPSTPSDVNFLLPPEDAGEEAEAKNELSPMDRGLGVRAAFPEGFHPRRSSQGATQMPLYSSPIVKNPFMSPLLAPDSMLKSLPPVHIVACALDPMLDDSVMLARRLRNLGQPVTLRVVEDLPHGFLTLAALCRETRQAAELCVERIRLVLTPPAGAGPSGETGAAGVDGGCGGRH
Procedure: 3190.1: Assay for determination of percent inhibition of hormone sensitive lipase by compound at 10 μM sample concentration.
A lipid emulsion with fluorochrome-labeled triacylglyceride and phospholipid is used as substrate with a standard concentration of highly purified HSL (12 μg/mL initial concentration corresponding to 600 ng/mL final concentration). BSA is added as product receptor. The transfer of the fluorochrome from the lipid phase to the water (BSA) phase changes the fluorescent properties of the fluorochrome. The changes can be monitored on a fluorimeter with an excitation wavelength of 450 nm and an emission wavelength of 545 nm.
Compound and HSL (2 μL compound, 10 μL enzyme and 70 μL PED-BSA buffer) is pre-incubated for 30 min at 25° C. before addition of substrate (100 μL). Amount of formed product is measured after 120 min incubation at 37° C.
Results are given as percent activity relative to a non-inhibited sample (no compound).

HSL = molecular target: T2, HSL (Homo sapiens, UniProt Q05469); assay: TEST 3180.2 HSL: percent inhibition at 10 μM, 3H-Triolein lipid emulsion; format: biochemical; settings: 10 μM concentration, percent activity relative to an un-inhibited sample, 30 min preincubation, 30 min reaction at 25° C.; for activity at 10 µM: read-out: TEST 3180.2 HSL Activity (%)
T2 sequence (Q05469 1-1076): T1 sequence (Q05469 1-1076)

Row | activity at 10 µM (hormone sensitive lipase) [%] | Compound | further results
1 | 31 | CC1(C)COB(c2ccc(F)c(Cl)c2)OC1 [Example 22, 2-(3-Chloro-4-fluorophenyl)-5,5-dimethyl-[1,3,2]dioxaborinane] | –
2 | 36 | Clc1cccc(B2OCCNCCO2)c1 [Example 6, 2-(3-Chlorophenyl)-[1,3,6,2]dioxazaborocane] | –
3 | 28 | CC1(C)OB(c2cccc(Br)c2)OC1(C)C [Example 25, 2-(3-Bromophenyl)-4,4,5,5-tetramethyl-[1,3,2]dioxaborolane] | –
4 | 27 | CC1(C)OB(c2cccc(C(F)(F)F)c2)OC1(C)C [Example 31, 4,4,5,5-Tetramethyl-2-(3-trifluoromethylphenyl)-[1,3,2]dioxaborolane] | –
5 | 46 | CC1(C)COB(c2cccc(F)c2)OC1 [Example 23, 2-(3-Fluorophenyl)-5,5-dimethyl-[1,3,2]dioxaborinane] | –
6 | 27 | CC1(C)COB(c2cccc(OC(F)(F)F)c2)OC1 [Example 20, 5,5-Dimethyl-2-(3-trifluoromethoxyphenyl)-[1,3,2]dioxaborinane] | –
7 | 40 | CC1(C)OB(c2cccc(Cl)c2)OC1(C)C [Example 30, 2-(3-Chlorophenyl)-4,4,5,5-tetramethyl-[1,3,2]dioxaborolane] | –
8 | 80 | Fc1cccc(B2OCCNCCO2)c1 [Example 7, 2-(3-Fluorophenyl)-[1,3,6,2]dioxazaborocane] | –
9 | 52 | Cc1csc(B2OC(C)(C)C(C)(C)O2)c1 [Example 32, 4,4,5,5-Tetramethyl-2-(4-methylthiophen-2-yl)-[1,3,2]dioxaborolane] | –
10 | 43 | CC1(C)OB(c2cc(Cl)cc(Cl)c2)OC1(C)C [Example 28, 2-(3,5-Dichlorophenyl)-4,4,5,5-tetramethyl-[1,3,2]dioxaborolane] | –
11 | 11 | CC1(C)COB(c2cccc(Br)c2)OC1 [Example 17, 2-(3-Bromophenyl)-5,5-dimethyl-[1,3,2]dioxaborinane] | –
12 | 31 | CC1(C)COB(c2cccc(C(F)(F)F)c2)OC1 [Example 11, 5,5-Dimethyl-2-(3-trifluoromethylphenyl)-[1,3,2]dioxaborinane] | –
13 | 17 | CC1(C)OB(c2ccc(Cl)s2)OC1(C)C [Example 1, 2-(5-Chlorothiophen-2-yl)-4,4,5,5-tetramethyl-[1,3,2]dioxaborolane] | –
14 | 36 | CC1(C)OB(c2ccc(F)c(Cl)c2)OC1(C)C [Example 29, 2-(3-Chloro-4-fluorophenyl)-4,4,5,5-tetramethyl-[1,3,2]dioxaborolane] | –
15 | 39 | CC1(C)COB(c2cccc(Cl)c2)OC1 [Example 10, 2-(3-Chlorophenyl)-5,5-dimethyl-[1,3,2]dioxaborinane] | –
16 | 34 | Brc1cccc(B2OCCNCCO2)c1 [Example 5, 2-(3-Bromophenyl)-[1,3,6,2]dioxazaborocane] | –
17 | 29 | CC1(C)OB(c2cccc(OC(F)(F)F)c2)OC1(C)C [Example 27, 4,4,5,5-Tetramethyl-2-(3-trifluoromethoxyphenyl)-[1,3,2]dioxaborolane] | –
18 | 43 | COc1ccc(Cl)cc1B1OCC(C)(C)CO1 [Example 18, 2-(5-Chloro-2-methoxyphenyl)-5,5-dimethyl-[1,3,2]dioxaborinane] | –

The next lines start with the compound.

Row | Compound | activity at 10 µM (hormone sensitive lipase) [%] | further results
19 | Cc1csc(B2OCCNCCO2)c1 [Example 16, 2-(4-Methylthiophen-2-yl)-[1,3,6,2]dioxazaborocane] | 61 | –
20 | Clc1cc(Cl)cc(B2OCCNCCO2)c1 [Example 14, 2-(3,5-Dichlorophenyl)-[1,3,6,2]dioxazaborocane] | 40 | –
21 | CC1(C)COB(c2cc(Cl)cc(Cl)c2)OC1 [Example 21, 2-(3,5-Dichlorophenyl)-5,5-dimethyl-[1,3,2]dioxaborinane] | 42 | –
22 | CC1(C)COB(c2ccc(Cl)s2)OC1 [Example 2, 2-(5-Chlorothiophen-2-yl)-5,5-dimethyl-[1,3,2]dioxaborinane] | 17 | –
23 | Clc1ccc(B2OCCNCCO2)s1 [Example 3, 2-(5-Chlorothiophen-2-yl)-[1,3,6,2]dioxazaborocane] | 19 | –
24 | COc1ccc(Cl)cc1B1OCCNCCO1 [Example 12, 2-(5-Chloro-2-methoxyphenyl)-[1,3,6,2]dioxazaborocane] | 39 | –
25 | Fc1ccc(B2OCCNCCO2)cc1Cl [Example 15, 2-(3-Chloro-4-fluorophenyl)-[1,3,6,2]dioxazaborocane] | 39 | –
26 | Fc1cc(F)cc(B2OCCNCCO2)c1 [Example 4, 2-(3,5-Difluorophenyl)-[1,3,6,2]dioxazaborocane] | 32 | –
27 | CC1(C)COB(c2cc(F)c(F)c(F)c2)OC1 [Example 19, 5,5-Dimethyl-2-(3,4,5-trifluorophenyl)-[1,3,2]dioxaborinane] | 49 | –
28 | CN(C)C(=O)c1ccc(B(O)O)cc1 [Example 77, 4-(N,N-DIMETHYLCARBAMOYL)PHENYLBORONIC ACID] | 98 | –
29 | FC(F)(F)Oc1cccc(B2OCCNCCO2)c1 [Example 13, 2-(3-Trifluoromethoxyphenyl)-[1,3,6,2]dioxazaborocane] | 26 | –
30 | Fc1cc(B2OCCNCCO2)cc(F)c1F [Example 9, 2-(3,4,5-Trifluorophenyl)-[1,3,6,2]dioxazaborocane] | 32 | –
31 | FC(F)(F)c1cccc(B2OCCNCCO2)c1 [Example 8, 2-(3-Trifluoromethylphenyl)-[1,3,6,2]dioxazaborocane] | 29 | –
32 | Cc1csc(B2OCC(C)(C)CO2)c1 [Example 24, 5,5-Dimethyl-2-(4-methylthiophen-2-yl)-[1,3,2]dioxaborinane] | 58 | –
33 | OB(O)c1ccc2[nH]ccc2c1 [Example 75, 5-INDOLYL BORONIC ACID] | 100 | –
34 | OB(O)c1ccc(Cl)c(Cl)c1 [Example 74, 3,4-Dichlorophenylboronic acid] | 53 | –
35 | CC1(C)OB(c2ccsc2[Si](C)(C)C)OC1(C)C [Example 81, 3′-(4,4,5,5-TETRAMETHYL-1,3,2-DIOXABOROLAN-2-YL)-2-trimethylsilylthiophen] | – | TEST 3180.2 HSL Activity (%) (HSL): 85%
36 | CC1(C)COB(c2ccccc2F)OC1 [Example 40, 2-(2-Fluoro-phenyl)-5,5-dimethyl-[1,3,2]dioxaborinane] | – | activity at 10 µM (HSL): 68%
37 | OB(O)c1ccc(F)cc1 [Example 47, 4-fluorophenylboronic acid] | – | activity at 10 µM (HSL): 65%
38 | O=Cc1cccc(B(O)O)c1 [Example 76, 3-Formylphenylboronic acid] | 80 | –
39 | OB(O)c1csc2ccccc12 [Example 83, 1-BENZOTHIOPHEN-3-YLBORONIC ACID] | – | activity at 10 µM (HSL): 76%
40 | OB(O)c1ccc(OCc2ccccc2)cc1 [Example 33, 4-Benzyloxyphenylboronic acid] | – | activity at 10 µM (HSL): 85%
41 | CC(=O)c1ccc(B(O)O)s1 [Example 96, 5-Acetylthiophene-2-boronic acid] | – | activity at 10 µM (HSL): 68%
